Here are results for 18 compounds from US12091385B2, “Pyridinylcyanoguanidine derivative and use thereof” (Rushi Biotech (Hangzhou) Co., Ltd, priority 2021, dated 2024).

By IC50 is commonly meant the concentration needed to halve the response being measured. Low readings indicate greater potency in that assay, high ones weaker potency in that assay.

Each structure is given as a SMILES string.

Holding throughout (format): cell-based
Assay [1] relates to Human pancreatic cancer cell CFPAC-1. The assay is described as follows: CCK-8 cell proliferation assay, CFPAC-1. Conditions: CFPAC-1 cells, 72 hrs with drug, CCK-8, OD 450 nm. Here is the method:
(§1) The effect of samples on the proliferation of human tumor cells in vitro was determined by CCK-8 cell proliferation assay.
(§2) The cells were assayed through a method including the following steps: • 1) The cells were digested, counted, and prepared into a cell suspension in a corresponding culture medium (Table 1) (5×10^4 cells/ml for CFPAC-1 and RPMI 8226, and 3.5×10^4 cells/ml for rest cells). The cell suspension was added to each well of a 96-well plate in 100 μl/well. • 2) Then the 96-well plate was incubated for 24 hrs in an incubator at 37° C. and 5% CO2. • 3) The drug was diluted with the culture medium to the required working concentration. 100 μl of the corresponding drug containing medium was added to each well.
(Tetrazolium dyes change colour on reduction, which living cells bring about.)

The test system of assay [2] is Human lung adenocarcinoma cell A549. The assay is described as follows: CCK-8 cell proliferation assay, A549. The note with it: A549 cells, 72 hrs with drug, CCK-8, OD 450 nm. As for the experimental part:
as §1, §2

Assay [3] has as its system Human colon cancer cell HCT-116. The assay is described as follows: CCK-8 cell proliferation assay, HCT-116. Conditions: HCT116 cells, 72 hrs with drug, CCK-8, OD 450 nm. As for the experimental part: as §1, §2
Assay [4] deals with Human multiple myeloma cell RPMI 8226. The assay is described as follows: CCK-8 cell proliferation assay, RPMI 8226. The note with it: RPMI8226 cells, 72 hrs with drug, CCK-8, OD 450 nm. As for the experimental part:
as §1, §2

Assay [5] concerns Human hepatoma cell HepG2. The assay is described as follows: CCK-8 cell proliferation assay, HepG2. Conditions: HepG2 cells, 72 hrs with drug, CCK-8, OD 450 nm. Here is the method:
as §1, §2

Assay [6] has as its system Human esophageal cancer cell TE-1. The assay is described as follows: CCK-8 cell proliferation assay, TE-1. The note with it: TE-1 cells, 72 hrs with drug, CCK-8, OD 450 nm. As for the experimental part: as §1, §2
The test system of assay [7] is Human gastric cancer cell MKN45. The assay is described as follows: CCK-8 cell proliferation assay, MKN45. Conditions: MKN-45 cells, 72 hrs with drug, CCK-8, OD 450 nm. Here is the method:
as §1, §2

For `N#CN=C(NCCCCCN1CCN(C(=O)c2cccs2)CC1)Nc1cccnc1` [BSS-PC018, 2-cyano-1-(5-(1-(2-thienylformyl)piperazine-4-yl)pentyl)-3-(3-pyridinyl)guanidine], the IC50 is 35 nM in assay [1]; 74 nM in assay [2]; 95 nM in assay [3]; 28 nM in assay [4]; 77 nM in assay [5]; 85 nM in assay [6]. It took 60 nM to reach half-maximal inhibition in assay [7] (IC50).
Take `N#CN=C(NCCCCCN1CCN(C(=O)c2ccccc2)CC1)Nc1cccnc1` [BSS-PC019, 2-cyano-1-(5-((1-benzoyl)piperazine-4-yl)pentyl)-3-(3-pyridinyl)guanidine]: the IC50 in assay [1] worked out at 46 nM; in assay [2], 71 nM; in assay [3] it was 73 nM; in assay [4] it was 38 nM; in assay [5], 83 nM; in assay [6] it was 64 nM. The IC50 in assay [7] worked out at 52 nM.
As for `N#CN=C(NCCCCCN1CCN(C(=O)c2cc3ccccc3[nH]2)CC1)Nc1ccncc1` [BSS-PC020, 2-cyano-1-(5-(1-(2-indolylformyl)piperazine-4-yl)pentyl)-3-(4-pyridinyl)guanidine], the IC50 in assay [1] is 57 nM; in assay [2], 61 nM; in assay [3], 85 nM; in assay [4] it was 35 nM; in assay [5], 72 nM; in assay [6] it was 93 nM. Moreover, half-maximal inhibition in assay [7] (IC50) required 51 nM.
On to `N#CN=C(NCCCCCN1CCN(C(=O)C2Cc3ccccc3O2)CC1)Nc1ccncc1` (stereo not drawn) [BSS-PC021, 2-cyano-1-(5-(1-(2-benzotetrahydrofurylfuryl)piperazine-4-yl)pentyl)-3-(4-pyridinyl)guanidine], for which the IC50 amounted to 55 nM in assay [1]; 79 nM in assay [2]; 106 nM in assay [3]; 49 nM in assay [4]; 93 nM in assay [5]; 118 nM in assay [6]. In assay [7], this compound displayed an IC50 of 65 nM.
`N#CN=C(NCCCCCN1CCN(C(=O)c2cc3ccccc3o2)CC1)Nc1ccncc1` [BSS-PC022, 2-cyano-1-(5-(1-(2-benzofurylformyl)piperazine-4-yl)pentyl)-3-(4-pyridinyl)guanidine]: the half-maximal inhibitory concentration (IC50) in assay [1] stood at 59 nM; in assay [2], 70 nM; in assay [3] it was 81 nM; in assay [4], 52 nM; in assay [5], 88 nM; in assay [6], 83 nM. In assay [7], this compound gave an IC50 of 65 nM.
Take `N#CN=C(NCCCCCN1CCN(C(=O)c2occc2F)CC1)Nc1ccncc1` [BSS-PC023, 2-cyano-1-(5-(1-(3-fluoro-2-furylformyl)piperazine-4-yl)pentyl)-3-(4-pyridinyl)guanidine]: the IC50 in assay [1] came to 39 nM; in assay [2] it was 42 nM; in assay [3], 52 nM; in assay [4] it was 30 nM; in assay [5], 57 nM; in assay [6] it was 43 nM. The compound further gave an IC50 in assay [7] of 430 nM.
Regarding `N#CN=C(NCCCCCN1CCN(C(=O)c2[nH]ccc2F)CC1)Nc1ccncc1` [BSS-PC024, 2-cyano-1-(5-(1-(3-fluoro-2-pyrrolylformyl)piperazine-4-yl)pentyl)-3-(4-pyridinyl)guanidine], the IC50 is 37 nM in assay [1]; 53 nM in assay [2]; 50 nM in assay [3]; 21 nM in assay [4]; 51 nM in assay [5]; 49 nM in assay [6]. The IC50 in assay [7] was 41 nM.
With `N#CN=C(NCCCCCN1CCN(C(=O)c2sccc2F)CC1)Nc1ccncc1` [BSS-PC025, 2-cyano-1-(5-(1-(3-fluoro-2-thienylformyl)piperazine-4-yl)pentyl)-3-(4-pyridinyl)guanidine], the IC50 in assay [1] amounted to 58 nM; in assay [2] it was 57 nM; in assay [3], 91 nM; in assay [4], 43 nM; in assay [5], 82 nM; in assay [6] it was 53 nM. The half-inhibitory concentration (IC50) in assay [7] came to 64 nM.
As to `N#CN=C(NCCCCCN1CCN(C(=O)c2ccco2)CC1)Nc1cccnc1` [BSS-PC026, 2-cyano-1-(5-((1-furoyl)piperazine-4-yl)pentyl)-3-(3-pyridinyl)guanidine], the IC50 in assay [1] came out at 31 nM; in assay [2], 32 nM; in assay [3], 73 nM; in assay [4], 20 nM; in assay [5], 55 nM; in assay [6], 72 nM. Also, the IC50 in assay [7] came to 30 nM.
For `COc1cccc(OC)c1C(=O)N1CCN(CCCCCNC(=NC#N)Nc2cccnc2)CC1` [BSS-PC027, 2-cyano-1-(5-(1-(2,6-dimethoxybenzoyl)piperazine-4-yl)pentyl)-3-(3-pyridinyl)guanidine], the half-inhibitory concentration (IC50) in assay [1] was 49 nM; in assay [2], 63 nM; in assay [3] it was 81 nM; in assay [4], 40 nM; in assay [5] it was 69 nM; in assay [6], 92 nM. Also, half-maximal inhibition in assay [7] (IC50) was put at 47 nM.
Turning to `N#CN=C(NCCCCCC1CCN(C(=O)c2ccccc2)C1)Nc1ccncc1` (stereo not drawn) [BSS-PC028, 2-cyano-1-(5-((1-benzoyl)pyrrolidine-3-yl)pentyl)-3-(4-pyridinyl)guanidine], the IC50 in assay [1] worked out at 35 nM; in assay [2] it was 50 nM; in assay [3], 66 nM; in assay [4], 31 nM; in assay [5], 51 nM; in assay [6] it was 55 nM. The compound also returned an IC50 in assay [7] of 39 nM.
Turning to `N#CN=C(NCCCCCC1CCN(C(=O)c2cccs2)C1)Nc1ccncc1` (stereo not drawn) [BSS-PC029, 2-cyano-1-(5-(1-(2-thienylformyl)pyrrolidine-3-yl)pentyl)-3-(4-pyridinyl)guanidine], the IC50 amounted to 34 nM in assay [1]; 35 nM in assay [2]; 52 nM in assay [3]; 19 nM in assay [4]; 64 nM in assay [5]; 66 nM in assay [6]. The compound also yielded an IC50 in assay [7] of 36 nM.
As to `COc1cccc(OC)c1C(=O)N1CCC(CCCCCNC(=NC#N)Nc2ccncc2)C1` (stereo not drawn) [BSS-PC031, 2-cyano-1-(5-(1-(2,6-dimethoxybenzoyl)pyrrolidine-3-yl)pentyl)-3-(4-pyridinyl)guanidine], the IC50 in assay [1] came out at 27 nM; in assay [2], 42 nM; in assay [3] it was 49 nM; in assay [4], 23 nM; in assay [5] it was 109 nM; in assay [6] it was 94 nM. The same compound displayed an IC50 in assay [7] of 37 nM.
On to `N#CN=C(NCCCCCC1CCN(C(=O)c2ccco2)C1)Nc1ccncc1` (stereo not drawn) [BSS-PC032, 2-cyano-1-(5-(1-(furoyl)pyrrolidine-3-yl)pentyl)-3-(4-pyridinyl)guanidine], for which the half-inhibitory concentration (IC50) in assay [1] is 25 nM; in assay [2], 26 nM; in assay [3], 52 nM; in assay [4] it was 29 nM; in assay [5], 68 nM; in assay [6], 57 nM. In assay [7], this compound had an IC50 of 61 nM.
Consider `N#CN=C(NCCCCCC1CCN(C(=O)c2ccc[nH]2)C1)Nc1ccncc1` (stereo not drawn) [BSS-PC033, 2-cyano-1-(5-(1-(2-pyrrolylformyl)pyrrolidine-3-yl)pentyl)-3-(4-pyridinyl)guanidine], for which the IC50 worked out at 29 nM in assay [1]; 51 nM in assay [2]; 42 nM in assay [3]; 17 nM in assay [4]; 76 nM in assay [5]; 67 nM in assay [6]. In addition, the half-inhibitory concentration (IC50) in assay [7] stood at 33 nM.
Regarding `N#CN=C(NCCCCCC1CCN(C(=O)C2CCCS2)C1)Nc1ccncc1` (stereo not drawn) [BSS-PC034, 2-cyano-1-(5-(1-(2-tetrahydrothienylformyl)pyrrolidine-3-yl)pentyl)-3-(4-pyridinyl)guanidine], the concentration for half-maximal inhibition (IC50) in assay [1] was found to be 23 nM; in assay [2] it was 23 nM; in assay [3] it was 27 nM; in assay [4], 18 nM; in assay [5], 37 nM; in assay [6], 39 nM. For the same compound, in assay [7], the half-maximal inhibitory concentration (IC50) amounted to 31 nM.
In the case of `N#CN=C(NCCCCCC1CCN(C(=O)C2CCCN2)C1)Nc1ccncc1` (stereo not drawn) [BSS-PC035, 2-cyano-1-(5-(1-(2-pyrrolidinylformyl)pyrrolidine-3-yl)pentyl)-3-(4-pyridinyl)guanidine], the IC50 in assay [1] stood at 16 nM; in assay [2], 32 nM; in assay [3], 33 nM; in assay [4], 27 nM; in assay [5] it was 86 nM; in assay [6], 79 nM. Also, the IC50 in assay [7] turned out to be 41 nM.
For `N#CN=C(NCCCCCC1CCN(C(=O)C2CCCO2)C1)Nc1ccncc1` (stereo not drawn) [BSS-PC036, 2-cyano-1-(5-(1-(2-tetrahydrofuranformyl)pyrrolidine-3-yl)pentyl)-3-(4-pyridinyl)guanidine], the IC50 is 39 nM in assay [1]; 28 nM in assay [2]; 58 nM in assay [3]; 25 nM in assay [4]; 90 nM in assay [5]; 72 nM in assay [6]. This compound also displayed an IC50 in assay [7] of 36 nM.
